Source: patent publication US12059429B2, “Hornerin: a novel non-VEGF mediated angiogenic protein expressed in both human and mouse angiogenic endothelial cells and human pancreatic cancer cells” (University of Virginia Patent Foundation, priority 2018, dated 2024)

Assays:
murine Hrnr = experiment: In vitro siRNA-mediated hornerin knockdown in COCA cells (immunoblot); assay type: cell-based; conditions: COCA mouse keratinocytes, densitometry
Experimental: For in vitro siRNA-mediated hornerin knockdown, COCA cells and human keratinocytes were plated at a density of 0.1×10^6 cells/well in a six-well cluster plate. The cells were treated the following day with Scr siRNA or Hrnr siRNA (Invitrogen; siRNA sequences identical to those utilized in tumor studies) following an established protocol (see Rachow et al., 2013). Briefly, 100 μL of 10 μM siRNA and 12.5 μL of Lipofectamine 2000 (LF2000; Invitrogen) were added to separate 625 μL OptiMEM (Thermo Fisher Scientific) aliquots. After 5 minutes at RT, the solutions were mixed and incubated for an additional 30 minutes, upon which 5 ml of keratinocyte media were added. The cells were incubated overnight in 3 ml of the siRNA/LF2000/media mixture, replenished the following morning with media containing 2 mM CaCl2) to induce differentiation, and lysed in RIPA buffer 8 hours post-media change. Lysate preparations were subjected to immunoblot using the primary antibodies anti-human hornerin (Abcam; 1:1000), anti-mouse hornerin (Santa Cruz Biotechnology, Dallas, TX, USA, sc164605; 1:200), or anti-beta actin (Cell Signaling; 1:4000), and respective secondary antibodies anti-goat HRP (R&D Systems; 1:10,000), and anti-mouse HRP (R&D Systems; 1:10,000). Uncropped hornerin immunoblots are represented in FIGS. 6A and 6B.

hornerin = experiment: Immunofluorescent microscopy of hornerin protein in tumor sections; assay type: in vivo, mouse; conditions: vs Scr siRNA
Experimental: Tumor sections were deparaffinized, rehydrated, heated in antigen retrieval solution (Vector), blocked for 30 minutes in blocking buffer, and incubated with anti-CD34 antibody (Abcam, ab8158, clone MEC14.7; 1:100) in blocking buffer overnight at 4° C. The sections were then incubated with goat anti-rat FITC secondary antibody (Abcam, ab6840; 1:100) in blocking buffer prior to mounting with Prolong Gold Antifade reagent (Invitrogen). Anti-actin, α-smooth muscle Cy3 antibody (Sigma, C6198, clone 1A4; 1:200) was added to the primary antibody solution if assaying for alpha-smooth muscle actin. […] Images were collected using a Nikon TE 2000-E2 microscope (Nikon Instruments) equipped with a Melles Griot Argon Laser System (Melles Griot, Carlsbad, CA, USA) and a Nikon D-Eclipse C1 confocal attachment and analyzed by Measurement Tool in Image J. To measure the relative hornerin expression in tumor vessels, three vessel segments per image were isolated and their mean intensity and area were measured and recorded. A weighted mean intensity was calculated to correct for differences in selected area. To measure the relative hornerin expression in tumor tissue, the mean intensity from three square sections (75×75 pixel) of tumor tissue per image was measured and recorded.

tumor vascularity = experiment: DCE-MRI and Ktrans measurement of L3.6pl tumors; assay type: in vivo, mouse
Experimental: To assess the in vivo function of tumor vascularity, DCE-MRI was performed on a 7.0 T Clinscan small animal imaging system (Bruker, Ettlingen, Germany) using a 30 mm inner-diameter birdcage radiofrequency coil. Mice (N=7) were imaged prior to treating tumors with Hrnr and Scr siRNA and again 6 days after treatment. Mice treated with the VEGFR inhibitor AV-951 (N=5) were image pre-siRNA treatment and 6 days posttreatment. Mice were anesthetized with 1.25% isoflurane anesthesia, which was maintained during imaging. Respiration and ECG were monitored during imaging using an MRI-compatible system (SA Instruments, Stony Brook, NY, USA). An indwelling tail vein catheter was established for administration of the gadolinium contrast agent Gd-DTPA, which is required in DCE imaging. Mice were placed supine in the imaging system, and body temperature was maintained at 36° C.±1° C. using circulating, temperature controlled water. Tumors were localized using a spin-echo imaging sequence, and an imaging plane that transected both tumors was chosen for DCE imaging.
A dual-Gd-bolus DCE-MRI acquisition strategy (Christian et al., 2004) was employed, which uses a low dose of contrast agent to accurately acquire the undistorted Gd concentration vs. time curve in the blood pool and a higher dose of contrast agent to acquire the Gd concentration vs. time curve in the tumor with high signal-to-noise ratio, since Gd-DTPA is known to have signal saturation effects at high doses in the blood pool (Christian et al., 2004). […]

L3.6pl tumors = experiment: Ki67 and cleaved caspase 3 immunofluorescence in tumor sections; assay type: in vivo, mouse; conditions: day 15 tumor sections
Experimental: Vessel parameters were measured using RAVE software (Seaman et al., 2011). For detection of proliferation and apoptosis, the sections were incubated with the primary antibodies anti-Ki67 (Abcam, ab15580; 1:200) or anti-cleaved caspase 3 (Cell Signaling, 9661; 1:200), respectively, overnight at 4° C. followed by incubation with anti-rabbit AF594 (Abcam, 150080; 1:200).

tumor vasculature = experiment: Photoacoustic microscopy of tumor vasculature; assay type: in vivo, mouse; conditions: day 12
Text: Using an established PAM system (Wang & Hu, 2012; Ning et al., 2015a; Ning et al., 2015b), the tumor vasculature was characterized in vivo. Two laser wavelengths, 532 and 559 nm, were used to simultaneously quantify microvascular diameter, oxygen saturation, and blood flow at the same spatial scale (Ning et al., 2015a). The applied optical energies were 100 and 75 nJ, which are below the maximum permissible exposure energy. Throughout the experiment, mice were maintained under anesthesia with 1.5% vaporized isoflurane and the body temperature was kept at 37° C. All experimental procedures were carried out in conformity with the laboratory animal protocol approved by the Animal Care and Use Committee at the University of Virginia.

cleaved caspase 3 levels in tumors relative to control (L3.6pl tumors): two-fold increase
Substance: 5′-GCAUGGAUCUUGUUGCGGUTT-3′ [Hrnr siRNA]
reduction in hornerin expression (knockdown) relative to Scr siRNA (murine Hrnr): 60% | decrease in hornerin expression in endothelial cells (hornerin; CD34+ tumor vessels): 30% | hornerin expression in epithelial cells from tumors (hornerin): no difference | tumor concentration of Gd-DTPA (tumor vascularity; after 6 days of siRNA injection every other day, vs Scr siRNA): two-fold reduced | reduction in Ktrans (tumor vascularity; after 6 days of siRNA injections, vs control): 2.4 fold | tumor blood hemoglobin levels (tumor vasculature): remained unchanged | tumor blood oxygen saturation compared to control (tumor vasculature): 1.7 fold
